Measurements: US10570129B2 (Zoetis Services LLC, priority 2015, dated 2020)

Columns and labels:
[1] = system: Haemonchus contortus L3; test: microbe, parasite or virus in culture; type: cell-based; details: Haemonchus contortus, 96 h, read-out: HcL3 Minimal Effective Concentration (MEC)
[2] = system: D. immitis microfilariae; test: Dirofilaria immitis, microfilariae (DiMF) in vitro motility assay; type: cell-based; details: Dirofilaria immitis, 72 h, read-out: DiMF minimally effective dose (MEC)

In the case of `O=C(NCc1ccnc(Cl)c1)n1c2c(c3cc(OC(F)(F)F)ccc31)CN(C/C=C/c1ccc(C(F)(F)F)cn1)CC2` [Example 385, (E)-N-((2-chloropyridin-4-yl)methyl)-8-(trifluoromethoxy)-2-(3-(5-(trifluoromethyl)pyridin-2-yl)allyl)-1,2,3,4-tetrahydro-5H-pyrido[4,3-b]indole-5-carboxamide], the minimal effective concentration [1] is reported as 0.5 µM and the minimal effective concentration [2] is reported as 47.8 µM.

Compound `N#Cc1ccc(/C=C/CN2CCc3c(c4cc(C(F)(F)F)ccc4n3C(=O)NCc3ccnc(Cl)c3)C2)cc1F` [Example 411, (E)-N-((2-chloropyridin-4-yl)methyl)-2-(3-(4-cyano-3-fluorophenyl)allyl)-8-(trifluoromethyl)-1,2,3,4-tetrahydro-5H-pyrido[4,3-b]indole-5-carboxamide] has a minimal effective concentration [1] of 0.03 µM and a minimal effective concentration [2] of 1.8 µM.

`N#Cc1ccc2c(c1)c1c(n2C(=O)NCc2ccnc(F)c2)CCN(C/C=C/c2cc(F)ccc2Br)C1` [Example 107, (E)-2-(3-(2-bromo-5-fluorophenyl)allyl)-8-cyano-N-((2-fluoropyridin-4-yl)methyl)-1,2,3,4-tetrahydro-5H-pyrido[4,3-b]indole-5-carboxamide] showed a minimal effective concentration [1] of 0.5 µM and a minimal effective concentration [2] of 1.8 µM.

Compound `O=C(NCc1ccnc(Cl)c1)n1c2c(c3cccc(Cl)c31)CN(C/C=C/c1ccc(Cl)cc1)CC2` [Example 267, (E)-6-chloro-2-(3-(4-chlorophenyl)allyl)-N-((2-chloropyridin-4-yl)methyl)-1,2,3,4-tetrahydro-5H-pyrido[4,3-b]indole-5-carboxamide] has a minimal effective concentration [1] of over 100 µM and a minimal effective concentration [2] of 10 µM.

`Cc1ccc2c3c(n(C(=O)NCc4ccnc(Cl)c4)c2c1)CCN(C/C=C/c1ccc(Cl)cc1)C3` [Example 146, (E)-2-(3-(4-chlorophenyl)allyl)-N-((2-chloropyridin-4-yl)methyl)-7-methyl-1,2,3,4-tetrahydro-5H-pyrido[4,3-b]indole-5-carboxamide] gave a minimal effective concentration [1] of 0.4 µM and a minimal effective concentration [2] of 10 µM.

Work on `CCOc1ccc2c(c1)c1c(n2C(=O)NCc2ccnc(Cl)c2)CCN(C/C=C/c2ccc(Cl)cc2)C1` [Example 513, (E)-2-(3-(4-chlorophenyl)allyl)-N-((2-chloropyridin-4-yl)methyl)-8-ethoxy-1,2,3,4-tetrahydro-5H-pyrido[4,3-b]indole-5-carboxamide] yielded a minimal effective concentration [1] of 7.6 µM and a minimal effective concentration [2] of 3.3 µM.

With `O=C(NCc1ccnc(Cl)c1)n1c2c(c3ccc(Cl)cc31)CN(C/C=C/c1ccc(Cl)c(Cl)c1)CC2` [Example 215, (E)-7-chloro-N-((2-chloropyridin-4-yl)methyl)-2-(3-(3,4-dichlorophenyl)allyl)-1,2,3,4-tetrahydro-5H-pyrido[4,3-b]indole-5-carboxamide] the minimal effective concentration [1] was 0.5 µM and the minimal effective concentration [2] was 10 µM.

`N#Cc1ccc2c(c1)c1c(n2C(=O)NCc2ccnc(Cl)c2)CCN(C/C=C/c2ccc(Cl)cc2)C1` [Example 92, (E)-2-(3-(4-chlorophenyl)allyl)-N-((2-chloropyridin-4-yl)methyl)-8-cyano-1,2,3,4-tetrahydro-5H-pyrido[4,3-b]indole-5-carboxamide] showed a minimal effective concentration [1] of 0.3 µM and a minimal effective concentration [2] of 3.3 µM.

`O=C(NCc1ccnc(Cl)c1)n1c2c(c3ccc(Cl)cc31)CN(C/C=C/c1ccc(F)c(Cl)c1)CC2` [Example 210, (E)-7-chloro-2-(3-(3-chloro-4-fluorophenyl)allyl)-N-((2-chloropyridin-4-yl)methyl)-1,2,3,4-tetrahydro-5H-pyrido[4,3-b]indole-5-carboxamide] showed a minimal effective concentration [1] of 3.3 µM and a minimal effective concentration [2] of 10 µM.

`O=C(NCc1ccnc(Cl)c1)n1c2c(c3cc(Cl)c(C(F)(F)F)cc31)CN(C/C=C/c1ccc(Cl)cc1)CC2` [Example 328, (E)-8-chloro-2-(3-(4-chlorophenyl)allyl)-N-((2-chloropyridin-4-yl)methyl)-7-(trifluoromethyl)-1,2,3,4-tetrahydro-5H-pyrido[4,3-b]indole-5-carboxamide] gave a minimal effective concentration [1] of 0.3 µM and a minimal effective concentration [2] of 33 µM.

`N#Cc1ccc(/C=C/CN2CCc3c(c4ccc(C#N)cc4n3C(=O)NCc3ccnc(Cl)c3)C2)cc1` [Example 33, (E)-N-((2-chloropyridin-4-yl)methyl)-7-cyano-2-(3-(4-cyanophenyl)allyl)-1,2,3,4-tetrahydro-5H-pyrido[4,3-b]indole-5-carboxamide] showed a minimal effective concentration [1] of 3.3 µM and a minimal effective concentration [2] of over 100 µM.

For `O=C(NCc1ccnc(F)c1)n1c2c(c3cc(OC(F)(F)F)ccc31)CN(C/C=C/c1ccc(Cl)c(F)c1)CC2` [Example 401, (E)-2-(3-(4-chloro-3-fluorophenyl)allyl)-N-((2-fluoropyridin-4-yl)methyl)-8-(trifluoromethoxy)-1,2,3,4-tetrahydro-5H-pyrido[4,3-b]indole-5-carboxamide], the minimal effective concentration [1] was 0.5 µM and the minimal effective concentration [2] was 18.2 µM.

`N#Cc1ccc2c3c(n(C(=O)NCc4ccnc(F)c4)c2c1)CCN(C/C=C/c1ccc(Cl)cc1)C3` [Example 55, (E)-2-(3-(4-chlorophenyl)allyl)-7-cyano-N-((2-fluoropyridin-4-yl)methyl)-1,2,3,4-tetrahydro-5H-pyrido[4,3-b]indole-5-carboxamide] showed a minimal effective concentration [1] of over 100 µM and a minimal effective concentration [2] of 10 µM.

In the case of `N#Cc1ccc(/C=C/CN2CCc3c(c4cc(Br)ccc4n3C(=O)NCc3ccnc(Cl)c3)C2)cc1F` [Example 180, (E)-8-bromo-N-((2-chloropyridin-4-yl)methyl)-2-(3-(4-cyano-3-fluorophenyl)allyl)-1,2,3,4-tetrahydro-5H-pyrido[4,3-b]indole-5-carboxamide], the minimal effective concentration [1] is reported as 0.5 µM and the minimal effective concentration [2] is reported as over 100 µM.

For `N#Cc1ccc2c(c1)c1c(n2C(=O)NCc2ccnc(F)c2)CCN(C/C=C/c2ccncc2)C1` [Example 124, (E)-8-cyano-N-((2-fluoropyridin-4-yl)methyl)-2-(3-(pyridin-4-yl)allyl)-1,2,3,4-tetrahydro-5H-pyrido[4,3-b]indole-5-carboxamide], the minimal effective concentration [1] was 100 µM and the minimal effective concentration [2] was 33 µM.

`O=C(NCc1ccnc(Cl)c1)n1c2c(c3cc(C(F)(F)F)ccc31)CN(C/C=C/c1ccc(F)c(Cl)c1)CC2` [Example 413, (E)-2-(3-(3-chloro-4-fluorophenyl)allyl)-N-((2-chloropyridin-4-yl)methyl)-8-(trifluoromethyl)-1,2,3,4-tetrahydro-5H-pyrido[4,3-b]indole-5-carboxamide] gave a minimal effective concentration [1] of 1.8 µM and a minimal effective concentration [2] of over 100 µM.

Compound `N#Cc1ccc2c(c1)c1c(n2C(=O)NCc2ccnc(Cl)c2)CCN(C/C=C/c2ccc(Br)cc2F)C1` [Example 73, (E)-2-(3-(4-bromo-2-fluorophenyl)allyl)-N-((2-chloropyridin-4-yl)methyl)-8-cyano-1,2,3,4-tetrahydro-5H-pyrido[4,3-b]indole-5-carboxamide] has a minimal effective concentration [1] of 0.1 µM and a minimal effective concentration [2] of over 100 µM.

`CCOc1ccc2c(c1)c1c(n2C(=O)NCc2ccnc(Cl)c2)CCN(C/C=C/c2ccc(F)cc2)C1` [Example 514, (E)-N-((2-chloropyridin-4-yl)methyl)-8-ethoxy-2-(3-(4-fluorophenyl)allyl)-1,2,3,4-tetrahydro-5H-pyrido[4,3-b]indole-5-carboxamide] showed a minimal effective concentration [1] of 5.7 µM and a minimal effective concentration [2] of 5.7 µM.

Work on `N#Cc1cc2c(cc1Cl)c1c(n2C(=O)NCc2ccnc(Cl)c2)CCN(C/C=C/c2ccc(Cl)cc2)C1` [Example 296, (E)-8-chloro-2-(3-(4-chlorophenyl)allyl)-N-((2-chloropyridin-4-yl)methyl)-7-cyano-1,2,3,4-tetrahydro-5H-pyrido[4,3-b]indole-5-carboxamide] yielded a minimal effective concentration [1] of 1 µM and a minimal effective concentration [2] of over 100 µM.

Work on `O=C(NCc1ccnc(Cl)c1)n1c2c(c3ccc(OC(F)(F)F)cc31)CN(C/C=C/c1ccc(F)cc1F)CC2` [Example 347, (E)-N-((2-chloropyridin-4-yl)methyl)-2-(3-(2,4-difluorophenyl)allyl)-7-(trifluoromethoxy)-1,2,3,4-tetrahydro-5H-pyrido[4,3-b]indole-5-carboxamide] yielded a minimal effective concentration [1] of 2.4 µM and a minimal effective concentration [2] of 2.4 µM.

For `Cc1cc(/C=C/CN2CCc3c(c4cc(C#N)ccc4n3C(=O)NCc3ccnc(Cl)c3)C2)ccc1Cl` [Example 96, (E)-2-(3-(4-chloro-3-methylphenyl)allyl)-N-((2-chloropyridin-4-yl)methyl)-8-cyano-1,2,3,4-tetrahydro-5H-pyrido[4,3-b]indole-5-carboxamide], the minimal effective concentration [1] was 0.2 µM and the minimal effective concentration [2] was over 100 µM.

`O=C(NCc1ccnc(Cl)c1)n1c2c(c3cc(Br)ccc31)CN(C/C=C/c1ccc(F)c(Cl)c1)CC2` [Example 182, (E)-8-bromo-2-(3-(3-chloro-4-fluorophenyl)allyl)-N-((2-chloropyridin-4-yl)methyl)-1,2,3,4-tetrahydro-5H-pyrido[4,3-b]indole-5-carboxamide] was tested, and the minimal effective concentration [1] was 1 µM and the minimal effective concentration [2] was over 100 µM.

For `O=C(NCc1ccnc(Cl)c1)n1c2c(c3c(C(F)(F)F)cc(F)cc31)CN(C/C=C/c1ccc(Cl)cc1)CC2` [Example 322, (E)-2-(3-(4-chlorophenyl)allyl)-N-((2-chloropyridin-4-yl)methyl)-7-fluoro-9-(trifluoromethyl)-1,2,3,4-tetrahydro-5H-pyrido[4,3-b]indole-5-carboxamide], the minimal effective concentration [1] was 5.7 µM and the minimal effective concentration [2] was 10 µM.

With `O=C(NCc1ccnc(Cl)c1)n1c2c(c3ccc(OC(F)(F)F)cc31)CN(C/C=C/c1c(F)cc(F)cc1F)CC2` [Example 341, (E)-N-((2-chloropyridin-4-yl)methyl)-7-(trifluoromethoxy)-2-(3-(2,4,6-trifluorophenyl)allyl)-1,2,3,4-tetrahydro-5H-pyrido[4,3-b]indole-5-carboxamide] the minimal effective concentration [1] was 3.3 µM and the minimal effective concentration [2] was 5.7 µM.

Compound `O=C(NCc1ccnc(F)c1)n1c2c(c3cc(F)c(OC(F)(F)F)cc31)CN(C/C=C/c1ccc(Cl)cc1)CC2` [Example 472, (E)-2-(3-(4-chlorophenyl)allyl)-8-fluoro-N-((2-fluoropyridin-4-yl)methyl)-7-(trifluoromethoxy)-1,2,3,4-tetrahydro-5H-pyrido[4,3-b]indole-5-carboxamide] has a minimal effective concentration [1] of 1 µM and a minimal effective concentration [2] of 10 µM.
